Like-named read-outs stand apart in the source and are kept apart here.
Experiments:
[1] = biological target: T1, TEM-1 (Escherichia coli, UniProt P62593); assay: β-lactamase inhibitory activity, determination of IC50 (nitrocefin hydrolysis); format: biochemical
T1 construct: made in house; host or cells: E. coli

[2] = biological target: T2, SHV-1 (Klebsiella pneumoniae, UniProt P0AD64); assay: as above; format: biochemical
T2 construct: made in house; host or cells: E. coli

[3] = biological target: T3, CTX-M-15 (Escherichia coli, UniProt Q9EXV5); assay: as above; format: biochemical
T3 construct: made in house; host or cells: E. coli
T3 sequence (Q9EXV5 entry or part of it): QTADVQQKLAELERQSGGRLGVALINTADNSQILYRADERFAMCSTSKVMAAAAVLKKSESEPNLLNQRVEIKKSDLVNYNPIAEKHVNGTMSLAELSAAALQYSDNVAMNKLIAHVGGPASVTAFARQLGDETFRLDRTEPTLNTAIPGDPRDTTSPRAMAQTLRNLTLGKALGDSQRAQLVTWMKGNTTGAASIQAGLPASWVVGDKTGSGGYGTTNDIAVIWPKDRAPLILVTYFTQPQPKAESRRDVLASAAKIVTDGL

[4] = biological target: T4, KPC-2 (Klebsiella pneumoniae, UniProt Q9F663); assay: as above; format: biochemical
T4 construct: made in house; host or cells: E. coli
T4 sequence (Q9F663 25-293 limits assumed): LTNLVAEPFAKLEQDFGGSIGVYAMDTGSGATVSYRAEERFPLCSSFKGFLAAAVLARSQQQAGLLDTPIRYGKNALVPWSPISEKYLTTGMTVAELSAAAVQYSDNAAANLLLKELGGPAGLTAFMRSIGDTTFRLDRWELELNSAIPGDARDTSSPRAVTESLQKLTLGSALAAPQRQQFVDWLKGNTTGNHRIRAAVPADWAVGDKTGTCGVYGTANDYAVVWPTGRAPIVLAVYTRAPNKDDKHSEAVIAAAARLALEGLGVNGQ

[5] = biological target: T5, OXA-1 (Escherichia coli, UniProt P13661); assay: as above; format: biochemical
T5 construct: made in house; host or cells: E. coli
T5 sequence (P13661 26-276): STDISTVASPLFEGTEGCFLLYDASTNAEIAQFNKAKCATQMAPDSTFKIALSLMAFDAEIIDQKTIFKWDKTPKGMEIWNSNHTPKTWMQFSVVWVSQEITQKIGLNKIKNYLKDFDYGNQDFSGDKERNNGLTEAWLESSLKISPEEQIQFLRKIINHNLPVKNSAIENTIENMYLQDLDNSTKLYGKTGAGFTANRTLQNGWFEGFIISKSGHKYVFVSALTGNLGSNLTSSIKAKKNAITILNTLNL

[6] = biological target: T6, OXA-11 (Pseudomonas aeruginosa, UniProt Q06778); assay: as above; format: biochemical
T6 construct: made in house; host or cells: E. coli
T6 sequence (Q06778 21-266): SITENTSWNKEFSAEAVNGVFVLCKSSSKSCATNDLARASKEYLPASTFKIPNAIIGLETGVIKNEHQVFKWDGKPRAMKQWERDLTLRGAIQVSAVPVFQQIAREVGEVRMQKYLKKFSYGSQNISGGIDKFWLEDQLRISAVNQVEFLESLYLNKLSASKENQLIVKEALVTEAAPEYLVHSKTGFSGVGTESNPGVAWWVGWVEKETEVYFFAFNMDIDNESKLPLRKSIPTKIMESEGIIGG

[7] = biological target: T7, OXA-15 (Pseudomonas aeruginosa, UniProt Q51574); assay: biochemical
T7 construct: made in house; host or cells: E. coli
T7 sequence (Q51574 22-275): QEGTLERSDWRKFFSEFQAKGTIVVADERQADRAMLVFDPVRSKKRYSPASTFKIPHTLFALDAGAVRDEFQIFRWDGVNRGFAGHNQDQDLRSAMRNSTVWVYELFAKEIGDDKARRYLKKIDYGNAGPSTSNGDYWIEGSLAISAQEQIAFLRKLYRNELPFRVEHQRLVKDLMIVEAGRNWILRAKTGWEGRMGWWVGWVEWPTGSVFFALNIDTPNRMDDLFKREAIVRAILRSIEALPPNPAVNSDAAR

[8] = biological target: T8, OXA-48 (Klebsiella pneumoniae, UniProt Q6XEC0); assay: β-lactamase inhibitory activity, determination of IC50 (nitrocefin hydrolysis); format: biochemical
T8 construct: made in house; host or cells: E. coli
T8 sequence (Q6XEC0 23-265 limits assumed): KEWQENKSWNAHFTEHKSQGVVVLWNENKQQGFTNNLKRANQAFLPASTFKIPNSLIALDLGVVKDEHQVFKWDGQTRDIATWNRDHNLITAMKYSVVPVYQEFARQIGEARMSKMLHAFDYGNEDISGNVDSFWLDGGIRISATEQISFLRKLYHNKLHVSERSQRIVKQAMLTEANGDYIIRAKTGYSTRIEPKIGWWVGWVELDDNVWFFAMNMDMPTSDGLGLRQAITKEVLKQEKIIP

[9] = system: E. cloacae 260508 (TEM-1, CTX-M-15); assay: MIC of compounds alone, broth microdilution; format: cell-based; conditions: Enterobacter cloacae, read-out: MIC compounds of the invention alone
Summary of the method: (§1)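 CLSI broth microdilution with compounds alone, spotted from DMSO, against log-phase bacteria at 5×10^5 cfu/mL in cation-adjusted Mueller-Hinton broth. Plates incubated 16-20 h at 35 °C in ambient air; MIC was the lowest concentration preventing visible growth.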

[10] = system: E. cloacae P99 (AmpC); assay: MIC of compounds alone, broth microdilution; format: cell-based; conditions: Enterobacter cloacae, read-out: MIC compounds of the invention alone
Summary of the method: as §1

[11] = system: E. cloacae UFR51 (SHV-12, IMP-8); assay: MIC of compounds alone, broth microdilution; format: cell-based; conditions: Enterobacter cloacae, read-out: MIC compounds of the invention alone
Summary of the method: as §1

[12] = system: E. cloacae UFR70 (TEM-1, CTX-M-15, CMY-2, OXA-1, Porin loss); assay: MIC of compounds alone, broth microdilution; format: cell-based; conditions: Enterobacter cloacae, read-out: MIC compounds of the invention alone
Summary of the method: as §1

[13] = system: E. cloacae UFR85 (TEM-1, CTX-M-15, AmpC); assay: MIC of compounds alone, broth microdilution; format: cell-based; conditions: Enterobacter cloacae, read-out: MIC compounds of the invention alone
Summary of the method: as §1

[14] = system: E. coli 131119 (TEM-1, OXA-48); assay: MIC of compounds alone, broth microdilution; format: cell-based; conditions: Escherichia coli, read-out: MIC compounds of the invention alone
Summary of the method: as §1

[15] = system: E. coli 190317 (TEM-1, SHV-12, CTX-M-15, OXA-1); assay: MIC of compounds alone, broth microdilution; format: cell-based; conditions: Escherichia coli, read-out: MIC compounds of the invention alone
Summary of the method: as §1

[16] = system: E. coli RGN238 (OXA-1); assay: MIC of compounds alone, broth microdilution; format: cell-based; conditions: Escherichia coli, read-out: MIC compounds of the invention alone
Summary of the method: as §1

[17] = system: E. coli UFR18 (CTX-M-15, OXA-204); assay: MIC of compounds alone, broth microdilution; format: cell-based; conditions: Escherichia coli, read-out: MIC compounds of the invention alone
Summary of the method: as §1

[18] = system: E. coli UFR32 (TEM-1, VEB-1, OXA-10); assay: MIC of compounds alone, broth microdilution; format: cell-based; conditions: Escherichia coli, read-out: MIC compounds of the invention alone
Summary of the method: as §1

[19] = system: E. coli UFR41 (TEM-1, CTX-M-15, CMY-2, OXA-1, NDM-4); assay: MIC of compounds alone, broth microdilution; format: cell-based; conditions: Escherichia coli, read-out: MIC compounds of the invention alone
Summary of the method: as §1

[20] = system: E. coli UFR61O (TEM-1, KPC-2); assay: MIC of compounds alone, broth microdilution; format: cell-based; conditions: Escherichia coli, read-out: MIC compounds of the invention alone
Summary of the method: as §1

[21] = system: E. coli UFR74 (SHV-1, DHA-1); assay: MIC of compounds alone, broth microdilution; format: cell-based; conditions: Escherichia coli, read-out: MIC compounds of the invention alone
Summary of the method: as §1

[22] = system: K. oxytoca UFR21 (TEM-1, CTX-M-15, OXA-48); assay: MIC of compounds alone, broth microdilution; format: cell-based; conditions: Klebsiella oxytoca, read-out: MIC compounds of the invention alone
Summary of the method: as §1

[23] = system: K. pneumoniae 160143 (TEM-1, SHV-1, CTX-M-15, KPC-2, OXA-1); assay: MIC of compounds alone, broth microdilution; format: cell-based; conditions: Klebsiella pneumoniae, read-out: MIC compounds of the invention alone
Summary of the method: as §1

[24] = system: K. pneumoniae 200047 (TEM-1, SHV-32, CTX-M-15, OXA-1); assay: MIC of compounds alone, broth microdilution; format: cell-based; conditions: Klebsiella pneumoniae, read-out: MIC compounds of the invention alone
Summary of the method: as §1

[25] = system: K. pneumoniae 6299 (TEM-1, SHV-11, OXA-163); assay: MIC of compounds alone, broth microdilution; format: cell-based; conditions: Klebsiella pneumoniae, read-out: MIC compounds of the invention alone
Summary of the method: as §1

[26] = system: K. pneumoniae BAA-1898 (TEM-1, SHV-11, SHV-12, KPC-2); assay: MIC of compounds alone, broth microdilution; format: cell-based; conditions: Klebsiella pneumoniae
Summary of the method: as §1

[27] = system: K. pneumoniae UFR24 (TEM-1, SHV-2, SHV-11, OXA-1, OXA-48, OXA-47); assay: MIC of compounds alone, broth microdilution; format: cell-based; conditions: Klebsiella pneumoniae, read-out: MIC compounds of the invention alone
Summary of the method: as §1

[28] = system: K. pneumoniae UFR39 (CTX-M-15, NDM-1); assay: MIC of compounds alone, broth microdilution; format: cell-based; conditions: Klebsiella pneumoniae, read-out: MIC compounds of the invention alone
Summary of the method: as §1

[29] = system: K. pneumoniae UFR68 (TEM-1, SHV-11, CTX-M-15, KPC-3); assay: MIC of compounds alone, broth microdilution; format: cell-based; conditions: Klebsiella pneumoniae, read-out: MIC compounds of the invention alone
Summary of the method: as §1

[30] = system: K. pneumoniae UFR77 (CMY-2); assay: MIC of compounds alone, broth microdilution; format: cell-based; conditions: Klebsiella pneumoniae, read-out: MIC compounds of the invention alone
Summary of the method: as §1

[31] = system: P. aeruginosa CIP107051 (TEM-24); assay: MIC of compounds alone, broth microdilution; format: cell-based; conditions: Pseudomonas aeruginosa
Summary of the method: as §1

[32] = biological target: AmpC (P99) (Enterobacter cloacae, UniProt P05364); assay: β-lactamase inhibitory activity, determination of IC50 (nitrocefin hydrolysis)
Chain of AmpC (P99) (P05364 21-381): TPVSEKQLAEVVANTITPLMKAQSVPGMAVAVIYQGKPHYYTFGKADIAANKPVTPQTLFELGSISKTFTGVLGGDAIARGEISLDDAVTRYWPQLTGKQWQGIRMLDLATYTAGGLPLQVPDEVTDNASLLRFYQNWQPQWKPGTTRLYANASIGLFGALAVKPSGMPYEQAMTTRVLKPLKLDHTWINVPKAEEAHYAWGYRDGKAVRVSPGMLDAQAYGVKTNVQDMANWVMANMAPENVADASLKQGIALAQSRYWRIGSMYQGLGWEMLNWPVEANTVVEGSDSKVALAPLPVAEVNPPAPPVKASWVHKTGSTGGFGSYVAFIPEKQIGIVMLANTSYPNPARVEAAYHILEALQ

[33] = biological target: AmpC P. aeruginosa (Pseudomonas aeruginosa, UniProt P24735); assay: as above
Chain of AmpC P. aeruginosa (P24735 27-397): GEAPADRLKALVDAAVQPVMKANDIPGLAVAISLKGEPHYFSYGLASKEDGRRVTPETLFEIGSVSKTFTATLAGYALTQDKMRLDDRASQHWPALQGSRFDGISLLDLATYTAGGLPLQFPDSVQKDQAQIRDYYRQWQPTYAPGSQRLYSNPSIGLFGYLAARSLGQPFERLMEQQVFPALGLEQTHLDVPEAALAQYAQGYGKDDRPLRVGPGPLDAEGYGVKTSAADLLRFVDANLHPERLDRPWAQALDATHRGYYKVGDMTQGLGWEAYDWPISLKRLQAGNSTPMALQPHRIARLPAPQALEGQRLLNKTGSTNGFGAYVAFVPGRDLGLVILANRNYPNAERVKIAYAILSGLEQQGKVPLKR

[34] = system: E. cloacae UFR51 (SHV-12, IMP-8); assay: MIC of ceftazidime (CAZ) in combination with compounds at 4 μg/mL, broth microdilution; format: cell-based; conditions: strain UFR51; MIC of CAZ with compound fixed at 4 μg/mL
Protocol: Method 2: MIC of Compounds and Synergy with Ceftazidime Against Bacterial Isolates (Table 2 and 3)
Compounds of the present invention were assessed against genotyped bacterial strains alone or in combination with the β-lactam ceftazidime (CAZ). In the assays, MICs of said compounds, or of ceftazidime at fixed concentrations of said compounds were determined by the broth microdilution method according to the Clinical Laboratory Standards Institute (CLSI-M7-A7). Briefly, compounds alone according to the invention were prepared in DMSO and spotted (2 μL each) on sterile polystyrene plates (Corning, 3788). Compounds and ceftazidime dilutions were prepared in DMSO and spotted (1 μL each) on sterile polystyrene plates (Corning, 3788). Log phase bacterial suspensions were adjusted to a final density of 5×10^5 cfu/mL in cation-adjusted Mueller-Hinton broth (Becton-Dickinson) and added to each well (98 μL). Microplates were incubated for 16-20 h at 35° C. in ambient air. The MIC of the compounds was defined as the lowest concentration of said compounds that prevented bacterial growth as read by visual inspection. The MIC of ceftazidime at each compound concentration was defined as the lowest concentration of ceftazidime that prevented bacterial growth as read by visual inspection.

T2 sequence (P0AD64 22-286): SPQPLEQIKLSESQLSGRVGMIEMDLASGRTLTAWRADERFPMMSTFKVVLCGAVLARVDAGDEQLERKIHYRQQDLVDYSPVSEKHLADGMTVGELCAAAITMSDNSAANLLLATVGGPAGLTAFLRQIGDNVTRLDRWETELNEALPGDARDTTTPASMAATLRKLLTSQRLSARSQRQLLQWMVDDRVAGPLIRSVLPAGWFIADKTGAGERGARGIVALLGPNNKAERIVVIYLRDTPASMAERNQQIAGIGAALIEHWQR
T1 sequence (P62593 24-286 limits assumed): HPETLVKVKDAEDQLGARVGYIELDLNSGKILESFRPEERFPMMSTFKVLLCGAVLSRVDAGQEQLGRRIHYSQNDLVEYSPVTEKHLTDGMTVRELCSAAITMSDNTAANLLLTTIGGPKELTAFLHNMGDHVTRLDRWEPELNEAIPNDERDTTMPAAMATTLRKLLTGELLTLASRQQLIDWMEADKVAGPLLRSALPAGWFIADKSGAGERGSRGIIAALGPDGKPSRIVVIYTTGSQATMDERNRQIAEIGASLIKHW

O=C1N2CC(c3ncco3)=C[C@H](C2)N1OC(F)(F)C(=O)O (racemic) [Example 37]
IC50 [1]: 1.6 nM | IC50 [2]: 13 nM | IC50 [3]: 0.57 nM | IC50 [4]: 53 nM | IC50 [5]: 7.4 µM | IC50 [6]: 210 nM | IC50 [7]: 59 nM | IC50 [8]: 1.8 nM | MIC [9]: 4 µg/mL | MIC [10]: 8 µg/mL | MIC [11]: 4 µg/mL | MIC [12]: 2 µg/mL | MIC [13]: 2 µg/mL | MIC [14]: 2 µg/mL | MIC [15]: 2 µg/mL | MIC [16]: 2 µg/mL | MIC [17]: 2 µg/mL | MIC [18]: 2 µg/mL | MIC [19]: 16 µg/mL | MIC [20]: 8 µg/mL | MIC [21]: 4 µg/mL | MIC [22]: 4 µg/mL | MIC [23]: 4 µg/mL | MIC [24]: 2 µg/mL | MIC [25]: 8 µg/mL | MIC ([26]; BAA1898, read-out: MIC compounds of the invention alone): 4 µg/mL | MIC [27]: 4 µg/mL | MIC [28]: 8 µg/mL | MIC [29]: 4 µg/mL | MIC [30]: 4 µg/mL | MIC ([31]; CIP107051, read-out: MIC compounds of the invention alone): > 128 µg/mL | IC50 [32]: 630 nM | IC50 [33]: 240 nM

O=C1N2CC(c3ccncc3)=CC(C2)N1OS(=O)(=O)[O-].[Na+] (stereo not drawn) [Example 33, Sodium [3-(4-pyridyl)-7-oxo-1,6-diazabicyclo[3.2.1]oct-3-en-6-yl]sulfate]
IC50 [1]: 1 nM | IC50 [2]: 2.3 nM | IC50 ([3]; class (A), nitrocefin 200 μM, 30 min pre-incubation, read-out: IC50 β-lactamase CTX-M-15): 0.79 nM | IC50 ([4]; class (A), nitrocefin 200 μM, 30 min pre-incubation, read-out: IC50 β-lactamase KPC-2): 9 nM | IC50 ([5]; class (D), nitrocefin 200 μM, 30 min pre-incubation, read-out: IC50 β-lactamase OXA-1): 0.69 µM | IC50 [6]: 210 nM | IC50 [7]: 110 nM | IC50 ([8]; class (D), nitrocefin 200 μM, 30 min pre-incubation, read-out: IC50 β-lactamase OXA-48): 12 nM | MIC ([10]; strain P99 (E. cloacae)): 8 µg/mL | MIC ([11]; strain UFR51 (E. cloacae)): 16 µg/mL | MIC [12]: 4 µg/mL | MIC ([14]; strain 131119 (E. coli)): 4 µg/mL | MIC [15]: 4 µg/mL | MIC ([16]; strain RGN238 (E. coli)): 4 µg/mL | MIC ([17]; strain UFR18 (E. coli)): 4 µg/mL | MIC ([18]; strain UFR32 (E. coli)): 8 µg/mL | MIC ([20]; strain UFR61O (E. coli)): 16 µg/mL | MIC ([21]; strain UFR74 (E. coli)): 8 µg/mL | MIC [22]: 32 µg/mL | MIC [23]: 8 µg/mL | MIC [24]: 8 µg/mL | MIC ([25]; strain 6299 (K. pneumoniae)): 16 µg/mL | MIC ([26]; BAA1898, strain BAA-1898 (K. pneumoniae), read-out: MIC compounds of the invention alone): 8 µg/mL | MIC ([27]; strain UFR24 (K. pneumoniae)): 32 µg/mL | MIC ([28]; strain UFR39 (K. pneumoniae)): 16 µg/mL | MIC ([30]; strain UFR77 (K. pneumoniae)): 16 µg/mL | MIC ([31]; strain CIP107051 (P. aeruginosa), read-out: MIC compounds of the invention alone): > 32 µg/mL | MIC combination of CAZ and compounds of the invention at 4 μg/mL [34]: >128 µg/mL | IC50 [32]: 31 nM | IC50 [33]: 90 nM
